Experimental data taken from patent US4894389A, “Novel aminoalkyl-substituted heterocyclic sulfur compounds” (Merrell Dow Pharmaceuticals Inc., priority 1987, dated 1990).

Tests used:
[1] = molecular target: T1, dopamine-β-hydroxylase (DBH) (Bos taurus, UniProt P15101); experiment: DBH inhibition kinetics: conversion of tyramine to octopamine, HPLC with fluorometric quantitation; assay type: biochemical; settings: read-out: inhibition constant (ki)
T1 sequence (P15101 1-610): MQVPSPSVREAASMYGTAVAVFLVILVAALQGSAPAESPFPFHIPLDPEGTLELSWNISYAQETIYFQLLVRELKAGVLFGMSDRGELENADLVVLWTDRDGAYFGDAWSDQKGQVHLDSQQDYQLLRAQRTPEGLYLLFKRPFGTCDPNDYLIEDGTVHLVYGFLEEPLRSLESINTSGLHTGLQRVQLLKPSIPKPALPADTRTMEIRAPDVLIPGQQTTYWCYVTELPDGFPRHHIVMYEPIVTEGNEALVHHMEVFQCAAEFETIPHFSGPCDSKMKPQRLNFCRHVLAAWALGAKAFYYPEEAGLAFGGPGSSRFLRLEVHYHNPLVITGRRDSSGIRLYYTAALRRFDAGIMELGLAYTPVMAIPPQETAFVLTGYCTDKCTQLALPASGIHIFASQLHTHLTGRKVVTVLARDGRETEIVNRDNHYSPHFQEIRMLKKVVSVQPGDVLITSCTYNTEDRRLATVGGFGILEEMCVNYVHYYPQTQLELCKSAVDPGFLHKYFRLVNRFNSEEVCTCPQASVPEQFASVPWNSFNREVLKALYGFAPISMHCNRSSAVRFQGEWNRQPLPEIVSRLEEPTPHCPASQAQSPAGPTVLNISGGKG
From the text: The DBH inhibitory properties of the compounds of this invention can also readily be determined […] by standard and well known procedures for assaying the conversion of tyramine to octopamine in the presence of DBH, such as the procedure set forth by Feilchenfeld, N. B., Richter, H. W. and Waddell, W. H. in "Time-Resolved Assay of Dopamine Beta Hydroxylase Activity Utilizing High-Pressure Liquid Chromatography", Analyt. Biochem., 122, 124-128 (1982). Determination of the kinetics of DBH inhibition is exemplified by a procedure where the enzyme-assisted conversion of tyramine to octopamine is determined by incubating varying concentrations of test compound with constant concentrations of substrate, enzyme (DBH), molecular oxygen, an electron donor such as ascorbate and the necessary cofactors for the enzyme at optimal temperature and pH. After incubation, the product is separated out by high-performance liquid chromatography and quantitated fluorometrically, from which an inhibition constant (ki) can readily be calculated.

[2] = test system: spontaneously hypertensive rats; experiment: Antihypertensive activity in vivo: continuous recording of arterial blood pressure in conscious spontaneously hypertensive rats; settings: ip
Method: For instance, test compounds are administered intraperitoneally (ip) to unanesthetized, spontaneously hypertensive rats and the arterial blood pressure is monitored continuously.

[3] = molecular target: T1, dopamine-β-hydroxylase (DBH); experiment: Time-dependent DBH inhibitory activity in vitro (tyramine substrate, oxygen uptake by polarographic electrode); assay type: biochemical
Method: Since DBH is a major enzyme in the synthetic pathway of norepinephrine (NE), the presence of a DBH inhibitor would act to decrease the amount of NE produced, and thereby have an antihypertensive effect. The DBH inhibitory properties of the compounds of this invention can readily be determined by standard and well-known procedures. […] The test compound is added at the desired concentration, and the system is incubated. Aliquots are taken at different time intervals and DBH activity is measured using tyramine as the substrate. The reaction is followed by measuring oxygen uptake using a polarographic electrode and an oxygen monitor by the method of S. May, et al., J. Biol. Chem., 256, 2258 (1981).

1,3-Dithiolane-2-ethanamine [Example 2]
Ki [1]: 11 µM

NC/C=C1/CCCS1 [Example 6]
in vivo antihypertensive activity [2]: active as an in vivo antihypertensive agent

NCC=C1SCCS1 [compound 1]
activity in the time-dependent DBH assay [3]: most active compound of the compounds tested
